This passage reports Ki results from patent US12723063B2, “GIPR-agonist compounds” (Eli Lilly and Company, priority 2019, dated 2026).

*1 amine or outer side, *2 acyl side, *3 side chain or, on linkers, in order; H or OH if unused. Where a SMILES comes first, the peptide text is derived from it. Side-chain parts run from the residue outwards. [ ]: non-standard residue; d: D form. The star is where a group is joined. C20 diacid = O=C(O)CCCCCCCCCCCCCCCCCCC(=O)*; γGlu = O=C(O)[C@H](CCC(=O)[*:2])N[*:1]; 4Pal = N[C@@H](Cc1ccncc1)C(=O)O; αMeL = CC(C)C[C@](C)(N)C(=O)O; Iva = CC[C@](C)(N)C(=O)O; Orn = NCCC[C@H](N)C(=O)O; AEEA = NCCOCCOCC(=O)O; Aib = CC(C)(N)C(=O)O

One assay concerns the target T1, human GcgR (Homo sapiens, UniProt P47871).
T1 construct: expressed in transfected cells; crude membranes
As to the kind of experiment: [125I]-Glucagon binding, SPA with WGA beads, 0.1% bacitracin. As to conditions: geometric mean, read-out: hGcgR Ki. In outline: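 SPA competition binding with WGA beads on crude membranes from HEK293 cells stably expressing hGcgR. Buffer: 25 mM HEPES pH 7.4, 2.5 mM CaCl2, 1 mM MgCl2, 0.1% bacitracin, 0.003% Tween-20; 10-point 3-fold dilutions, NSB with 1 μM Gcg.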

The target in the next assay is T2, human GIPR (Homo sapiens, UniProt P48546).
T2 construct: expressed in transfected cells; crude membranes
T2 sequence (P48546 22-466): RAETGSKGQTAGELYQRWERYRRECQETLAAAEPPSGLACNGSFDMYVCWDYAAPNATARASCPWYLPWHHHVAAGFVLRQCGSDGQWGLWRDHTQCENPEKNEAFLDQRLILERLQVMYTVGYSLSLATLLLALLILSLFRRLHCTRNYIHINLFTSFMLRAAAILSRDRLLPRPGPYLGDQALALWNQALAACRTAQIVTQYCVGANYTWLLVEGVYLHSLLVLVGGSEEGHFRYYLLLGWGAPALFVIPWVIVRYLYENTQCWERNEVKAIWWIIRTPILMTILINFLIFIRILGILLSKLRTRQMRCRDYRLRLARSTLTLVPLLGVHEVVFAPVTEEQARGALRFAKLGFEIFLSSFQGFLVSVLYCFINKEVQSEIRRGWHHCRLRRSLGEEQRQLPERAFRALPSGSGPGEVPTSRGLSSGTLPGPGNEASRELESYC
As to the kind of experiment: [125I]-GIP binding, SPA with WGA beads, 0.1% bacitracin. As to conditions: geometric mean, read-out: hGIPR Ki. In outline: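 Ki values are geometric means (SEM, n independent days), derived from four-parameter nonlinear regression of IC50. Membranes came from hGIPR-expressing CHO cells.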

T1 sequence (P47871 26-477): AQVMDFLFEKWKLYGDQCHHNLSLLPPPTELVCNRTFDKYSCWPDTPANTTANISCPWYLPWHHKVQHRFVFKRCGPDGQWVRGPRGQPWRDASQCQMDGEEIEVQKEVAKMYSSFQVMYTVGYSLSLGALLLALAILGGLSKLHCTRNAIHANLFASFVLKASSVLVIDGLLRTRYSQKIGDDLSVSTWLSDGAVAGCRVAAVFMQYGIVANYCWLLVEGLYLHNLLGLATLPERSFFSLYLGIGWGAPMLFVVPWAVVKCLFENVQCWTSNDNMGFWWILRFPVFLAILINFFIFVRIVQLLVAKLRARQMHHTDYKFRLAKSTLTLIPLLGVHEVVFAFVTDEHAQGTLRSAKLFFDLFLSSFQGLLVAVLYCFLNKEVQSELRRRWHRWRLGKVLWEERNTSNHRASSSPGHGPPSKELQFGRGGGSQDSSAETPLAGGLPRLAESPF

A word on the Ki: it is the dissociation constant of the complex between target and ligand, obtained from inhibition or displacement. On to `CC[C@H](C)[C@H](NC(=O)[C@H](CC(C)C)NC(=O)[C@@H](NC(=O)CNC(=O)[C@H](CCC(=O)O)NC(=O)C(C)(C)NC(=O)[C@@H](N)Cc1ccc(O)cc1)[C@@H](C)O)C(=O)N[C@@H](CO)C(=O)N[C@@H](CC(=O)O)C(=O)N[C@@H](Cc1ccc(O)cc1)C(=O)N[C@@H](CO)C(=O)N[C@H](C(=O)N[C@@](C)(CC(C)C)C(=O)N[C@@H](CC(C)C)C(=O)N[C@@H](CC(=O)O)C(=O)N[C@@H](CCCCN)C(=O)N[C@@H](CCCCNC(=O)COCCOCCNC(=O)COCCOCCNC(=O)CC[C@H](NC(=O)CCCCCCCCCCCCCCCCCCC(=O)O)C(=O)O)C(=O)N[C@@H](Cc1c[nH]cn1)C(=O)N[C@@H](CCC(N)=O)C(=O)NC(C)(C)C(=O)N[C@@H](CCC(=O)O)C(=O)N[C@@H](Cc1ccccc1)C(=O)N[C@H](C(=O)N[C@@H](CCC(=O)O)C(=O)N[C@@H](Cc1ccc(O)cc1)C(=O)N[C@@H](CC(C)C)C(=O)N[C@@H](CC(C)C)C(=O)N[C@@H](CCC(=O)O)C(=O)NCC(=O)NCC(=O)N1CCC[C@H]1C(=O)N[C@@H](CO)C(=O)N[C@@H](CO)C(=O)NCC(=O)N[C@@H](C)C(=O)N1CCC[C@H]1C(=O)N1CCC[C@H]1C(=O)N1CCC[C@H]1C(=O)N[C@@H](CO)C(N)=O)C(C)C)[C@@H](C)CC` [Example 73] (H-Y[Aib]EGTLISDYSI[αMeL]LDKK([AEEA-AEEA-γGlu-C20 diacid])HQ[Aib]EFVEYLLEGGPSSGAPPPS-NH2), for which the Ki on human GcgR is 292 nM; on human GIPR, 0.036 nM.
Regarding `CC[C@H](C)[C@H](NC(=O)[C@H](CO)NC(=O)[C@H](Cc1ccc(O)cc1)NC(=O)[C@H](CC(=O)O)NC(=O)[C@H](CO)NC(=O)[C@@H](NC(=O)[C@](C)(CC)NC(=O)[C@@H](NC(=O)CNC(=O)[C@H](CCC(=O)O)NC(=O)C(C)(C)NC(=O)[C@@H](N)Cc1ccc(O)cc1)[C@@H](C)O)[C@@H](C)CC)C(=O)N[C@@](C)(CC(C)C)C(=O)N[C@@H](CC(C)C)C(=O)N[C@@H](CC(=O)O)C(=O)N[C@@H](CCCCN)C(=O)N[C@@H](CCCCNC(=O)COCCOCCNC(=O)COCCOCCNC(=O)CC[C@H](NC(=O)CCCCCCCCCCCCCCCCCCC(=O)O)C(=O)O)C(=O)N[C@@H](Cc1c[nH]cn1)C(=O)N[C@@H](CCC(N)=O)C(=O)NC(C)(C)C(=O)N[C@@H](CC(=O)O)C(=O)N[C@@H](Cc1ccccc1)C(=O)N[C@H](C(=O)N[C@@H](CCC(=O)O)C(=O)N[C@@H](Cc1ccncc1)C(=O)N[C@@H](CC(C)C)C(=O)N[C@@H](CC(C)C)C(=O)N[C@@H](CCC(=O)O)C(=O)NCC(=O)NCC(=O)N1CCC[C@H]1C(=O)N[C@@H](CO)C(=O)N[C@@H](CO)C(=O)NCC(=O)N[C@@H](C)C(=O)N1CCC[C@H]1C(=O)N1CCC[C@H]1C(=O)N1CCC[C@H]1C(=O)N[C@@H](CO)C(N)=O)C(C)C` [Example 74] (H-Y[Aib]EGT[Iva]ISDYSI[αMeL]LDKK([AEEA-AEEA-γGlu-C20 diacid])HQ[Aib]DFVE[4Pal]LLEGGPSSGAPPPS-NH2), the Ki was determined as 511 nM on human GcgR and 0.0287 nM at human GIPR.
As for `CC[C@H](C)[C@H](NC(=O)[C@H](CO)NC(=O)[C@H](Cc1ccc(O)cc1)NC(=O)[C@H](CC(=O)O)NC(=O)[C@H](CO)NC(=O)[C@@H](NC(=O)[C@](C)(CC)NC(=O)[C@@H](NC(=O)CNC(=O)[C@H](CCC(=O)O)NC(=O)C(C)(C)NC(=O)[C@@H](N)Cc1ccc(O)cc1)[C@@H](C)O)[C@@H](C)CC)C(=O)N[C@@](C)(CC(C)C)C(=O)N[C@@H](CC(C)C)C(=O)N[C@@H](CC(=O)O)C(=O)N[C@@H](CCCCN)C(=O)N[C@@H](CCCCNC(=O)COCCOCCNC(=O)COCCOCCNC(=O)CC[C@H](NC(=O)CCCCCCCCCCCCCCCCCCC(=O)O)C(=O)O)C(=O)N[C@@H](Cc1c[nH]cn1)C(=O)N[C@@H](CCC(N)=O)C(=O)NC(C)(C)C(=O)N[C@@H](CC(=O)O)C(=O)N[C@@H](Cc1ccccc1)C(=O)N[C@H](C(=O)N[C@@H](CCC(=O)O)C(=O)N[C@@H](Cc1ccncc1)C(=O)N[C@@H](CC(C)C)C(=O)N[C@@H](CC(C)C)C(=O)N[C@@H](CCC(=O)O)C(=O)N[C@H](C(=O)NCC(=O)N1CCC[C@H]1C(=O)N[C@@H](CO)C(=O)N[C@@H](CO)C(=O)NCC(=O)N[C@@H](C)C(=O)N1CCC[C@H]1C(=O)N1CCC[C@H]1C(=O)N1CCC[C@H]1C(=O)N[C@@H](CO)C(N)=O)[C@@H](C)O)C(C)C` [Example 75] (H-Y[Aib]EGT[Iva]ISDYSI[αMeL]LDKK([AEEA-AEEA-γGlu-C20 diacid])HQ[Aib]DFVE[4Pal]LLETGPSSGAPPPS-NH2), the results for the Ki on human GcgR and on human GIPR were greater than 958 nM and 0.0626 nM, respectively.
Turning to `CC[C@H](C)[C@H](NC(=O)[C@H](CO)NC(=O)[C@H](Cc1ccc(O)cc1)NC(=O)[C@H](CC(=O)O)NC(=O)[C@H](CO)NC(=O)[C@@H](NC(=O)[C@](C)(CC)NC(=O)[C@@H](NC(=O)CNC(=O)[C@H](CCC(=O)O)NC(=O)C(C)(C)NC(=O)[C@@H](N)Cc1ccc(O)cc1)[C@@H](C)O)[C@@H](C)CC)C(=O)N[C@@](C)(CC(C)C)C(=O)N[C@@H](CC(C)C)C(=O)N[C@@H](CC(=O)O)C(=O)N[C@@H](CCCN)C(=O)N[C@@H](CCCCNC(=O)COCCOCCNC(=O)COCCOCCNC(=O)CC[C@H](NC(=O)CCCCCCCCCCCCCCCCCCC(=O)O)C(=O)O)C(=O)N[C@@H](Cc1c[nH]cn1)C(=O)N[C@@H](CCC(N)=O)C(=O)NC(C)(C)C(=O)N[C@@H](CC(=O)O)C(=O)N[C@@H](Cc1ccccc1)C(=O)N[C@H](C(=O)N[C@@H](CCC(=O)O)C(=O)N[C@@H](Cc1ccncc1)C(=O)N[C@@H](CC(C)C)C(=O)N[C@@H](CC(C)C)C(=O)N[C@@H](CCC(=O)O)C(=O)NCC(=O)NCC(=O)N1CCC[C@H]1C(=O)N[C@@H](CO)C(=O)N[C@@H](CO)C(=O)NCC(=O)N[C@@H](C)C(=O)N1CCC[C@H]1C(=O)N1CCC[C@H]1C(=O)N1CCC[C@H]1C(=O)N[C@@H](CO)C(N)=O)C(C)C` [Example 76] (H-Y[Aib]EGT[Iva]ISDYSI[αMeL]LD[Orn]K([AEEA-AEEA-γGlu-C20 diacid])HQ[Aib]DFVE[4Pal]LLEGGPSSGAPPPS-NH2), the inhibition constant (Ki) is 358 nM at human GcgR and 0.0293 nM at human GIPR.
As to `CC[C@H](C)[C@H](NC(=O)[C@H](CO)NC(=O)[C@H](Cc1ccc(O)cc1)NC(=O)[C@H](CC(=O)O)NC(=O)[C@H](CO)NC(=O)[C@@H](NC(=O)[C@](C)(CC)NC(=O)[C@@H](NC(=O)CNC(=O)[C@H](CCC(=O)O)NC(=O)C(C)(C)NC(=O)[C@@H](N)Cc1ccc(O)cc1)[C@@H](C)O)[C@@H](C)CC)C(=O)N[C@@](C)(CC(C)C)C(=O)N[C@@H](CC(C)C)C(=O)N[C@@H](CC(=O)O)C(=O)N[C@@H](CCCN)C(=O)N[C@@H](CCCCNC(=O)COCCOCCNC(=O)COCCOCCNC(=O)CC[C@H](NC(=O)CCCCCCCCCCCCCCCCCCC(=O)O)C(=O)O)C(=O)N[C@@H](Cc1c[nH]cn1)C(=O)N[C@@H](CCC(N)=O)C(=O)NC(C)(C)C(=O)N[C@@H](CC(=O)O)C(=O)N[C@@H](Cc1ccccc1)C(=O)N[C@H](C(=O)N[C@@H](CCC(=O)O)C(=O)N[C@@H](Cc1ccncc1)C(=O)N[C@@H](CC(C)C)C(=O)N[C@@H](CC(C)C)C(=O)N[C@@H](CCC(=O)O)C(=O)N[C@H](C(=O)NCC(=O)N1CCC[C@H]1C(=O)N[C@@H](CO)C(=O)N[C@@H](CO)C(=O)NCC(=O)N[C@@H](C)C(=O)N1CCC[C@H]1C(=O)N1CCC[C@H]1C(=O)N1CCC[C@H]1C(=O)N[C@@H](CO)C(N)=O)[C@@H](C)O)C(C)C` [Example 77] (H-Y[Aib]EGT[Iva]ISDYSI[αMeL]LD[Orn]K([AEEA-AEEA-γGlu-C20 diacid])HQ[Aib]DFVE[4Pal]LLETGPSSGAPPPS-NH2), the figures for the Ki on human GcgR and at human GIPR were greater than 958 nM and 0.0841 nM, respectively.
In the case of `CC[C@H](C)[C@H](NC(=O)[C@H](Cc1ccccc1)NC(=O)[C@@H](NC(=O)CNC(=O)[C@H](CCC(=O)O)NC(=O)C(C)(C)NC(=O)[C@@H](N)Cc1ccc(O)cc1)[C@@H](C)O)C(=O)N[C@@H](CO)C(=O)N[C@@H](CC(=O)O)C(=O)N[C@@H](Cc1ccc(O)cc1)C(=O)N[C@@H](CO)C(=O)N[C@H](C(=O)N[C@@](C)(CC(C)C)C(=O)N[C@@H](CC(C)C)C(=O)N[C@@H](CC(=O)O)C(=O)N[C@@H](CCCCN)C(=O)N[C@@H](CCCCNC(=O)COCCOCCNC(=O)COCCOCCNC(=O)CC[C@H](NC(=O)CCCCCCCCCCCCCCCCCCC(=O)O)C(=O)O)C(=O)N[C@@H](Cc1c[nH]cn1)C(=O)N[C@@H](CCC(N)=O)C(=O)NC(C)(C)C(=O)N[C@@H](CC(=O)O)C(=O)N[C@@H](Cc1ccccc1)C(=O)N[C@H](C(=O)N[C@@H](CCC(=O)O)C(=O)N[C@@H](Cc1ccncc1)C(=O)N[C@@H](CC(C)C)C(=O)N[C@@H](CC(C)C)C(=O)N[C@@H](C)C(=O)N[C@@H](C)C(=O)NCC(=O)N1CCC[C@H]1C(=O)N[C@@H](CO)C(=O)N[C@@H](CO)C(=O)NCC(=O)N[C@@H](C)C(=O)N1CCC[C@H]1C(=O)N1CCC[C@H]1C(=O)N1CCC[C@H]1C(=O)N[C@@H](CO)C(N)=O)C(C)C)[C@@H](C)CC` [Example 78], the Ki at human GcgR was 505 nM; on human GIPR it was 0.0236 nM.
